Experimental data from article PMC11912722, “Chikusetsusaponin IVa targeted YAP as an inhibitor to attenuate liver fibrosis and hepatic stellate cell activation” (Chinese Medicine, 2025).

Target: T1, YAP in LX-2 cells (Homo sapiens, UniProt P46937)
T1 construct: gene YAP1; endogenous full-length protein in LX-2 cells, detected by western blot (YAP antibody Cell Signaling 14074 T)
Assay: CETSA, western blot
Format: cell-based
Conditions: LX-2 cells incubated 24 h with 10 μmol/L CS-IVa, lysed, supernatant heated 45-75 °C for 3 min

T1 sequence (P46937 whole entry): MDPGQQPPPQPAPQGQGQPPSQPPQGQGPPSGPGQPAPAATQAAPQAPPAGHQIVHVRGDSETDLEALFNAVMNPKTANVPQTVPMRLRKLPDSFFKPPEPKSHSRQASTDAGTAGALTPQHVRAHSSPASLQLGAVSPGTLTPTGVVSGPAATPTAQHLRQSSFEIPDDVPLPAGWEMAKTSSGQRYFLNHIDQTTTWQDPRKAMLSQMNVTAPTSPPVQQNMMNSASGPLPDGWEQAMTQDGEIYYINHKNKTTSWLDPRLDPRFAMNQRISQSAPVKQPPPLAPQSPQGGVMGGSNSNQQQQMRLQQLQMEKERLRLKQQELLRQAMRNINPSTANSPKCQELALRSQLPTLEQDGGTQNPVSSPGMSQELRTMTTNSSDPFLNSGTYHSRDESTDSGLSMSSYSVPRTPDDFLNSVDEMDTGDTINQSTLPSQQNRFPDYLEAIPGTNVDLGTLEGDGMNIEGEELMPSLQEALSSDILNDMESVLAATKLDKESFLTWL

## CC1(C)CC[C@]2(C(=O)O[C@@H]3O[C@H](CO)[C@@H](O)[C@H](O)[C@H]3O)CC[C@]3(C)C(=CC[C@@H]4[C@@]5(C)CC[C@H](O[C@@H]6O[C@H](C(=O)O)[C@@H](O)[C@H](O)[C@H]6O)C(C)(C)[C@@H]5CC[C@]43C)[C@@H]2C1 [CS-IVa]
  thermal stability (CETSA): treatment with CS-IVa significantly increased the thermal stability of YAP
